Results reported in US6703347B2, “Isothiazole derivatives and their use as pesticides” (Syngenta Limited, priority 2000, dated 2004).

How the values were obtained:
[1] = test system: Puccinia recondita (PUCCRT); assay: foliar fungicide test on wheat (Example 19); type: in vivo; settings: 100 ppm foliar (Prot) application on wheat; inoculated 6 hours or one day after application
[2] = test system: two-spotted spider mites (Tetranychus urticae); settings: liquid composition containing 500 ppm by weight of compound
Experimental: (§1) The activities of individual compounds of formula (I) were determined using a variety of pests. The pests were treated with a liquid composition containing 500 parts per million (ppm) by weight of a compound of formula (I). Each composition was made by dissolving the compound in an acetone and ethanol (50:50 by volume) mixture and diluting the solution with water containing 0.05% by volume of a wetting agent, SYNPERONIC NP8, until the liquid composition contained the required concentration of the compound.
(§2) The test procedure adopted with regard to each pest was essentially the same and comprised supporting a number of the pests on a medium, which was usually a substrate, a host plant or a foodstuff on which the pests feed, and treating either or both the medium and the pests with a composition. Pest mortality was assessed usually between two and five days after treatment.
(§3) Similar tests were conducted against, independently, two-spotted spider mites (Tetranychus urticae), fruit flies (Drosophila melanogaster), tobacco budworms (Heliothis virescens), diamond back moth (Plutella xylostella) and corn root worm (Diabrotica balteata).

[3] = test system: peach potato aphids (Myzus persicae); settings: 500 ppm by weight; infested Chinese cabbage leaves sprayed; mortality assessed after three days
Experimental: This Example illustrates the pesticidal/insecticidal properties of compounds of formula (I). The activities of individual compounds of formula (I) were determined using a variety of pests. The pests were treated with a liquid composition containing 500 parts per million (ppm) by weight of a compound of formula (I). Each composition was made by dissolving the compound in an acetone and ethanol (50:50 by volume) mixture and diluting the solution with water containing 0.05% by volume of a wetting agent, SYNPERONIC NP8, until the liquid composition contained the required concentration of the compound.
as §2
In each test against peach potato aphids (Myzus persicae), Chinese cabbage leaves were infested with aphids, the infested leaves were sprayed with a test composition and pest mortality was assessed after three days.

[4] = test system: Plasmopara viticola (PLASVI); assay: foliar fungicide test on vines (Example 19); type: in vivo; settings: 100 ppm foliar (Prot) application on vines; inoculated 6 hours or one day after application
[5] = test system: Blumeria graminis f.sp. tritici (ERYSGT); assay: foliar fungicide test on wheat (Example 19); type: in vivo; settings: 100 ppm foliar (Prot) application on wheat; inoculated 6 hours or one day after application
[6] = test system: diamond back moth (Plutella xylostella); assay: pesticidal test against diamond back moth; settings: liquid composition containing 500 ppm by weight of compound
Experimental: as §1, §2, §3

[7] = test system: fruit flies (Drosophila melanogaster); assay: pesticidal test against fruit flies; settings: liquid composition containing 500 ppm by weight of compound
Experimental: as §1, §2, §3

[8] = test system: corn root worm (Diabrotica balteata); assay: pesticidal test against corn root worm; settings: liquid composition containing 500 ppm by weight of compound
Experimental: as §1, §2, §3

Compound | PUCCRT Prot, PRCO (Percentage Reduction from Control) [1] | mortality (score) Tu [2] | mortality (score) Mp [3] | PLASVI Prot, PRCO (Percentage Reduction from Control) [4] | ERYSGT Prot, PRCO (Percentage Reduction from Control) [5] | melting point [°C] | mortality (score) Px [6] | mortality (score) Dm [7] | mortality (score) Db [8]
Cc1nsc(NC(=O)C(F)c2ccc3oc(CC(C)(C)C)nc3c2)c1Cl (centres unmarked) [Table 5 Compound 7] | 96 | 9 (9 indicates 80-100% mortality) | 9 (9 indicates 80-100% mortality) | 98 | 100 |  |  |  | 
Cc1nsc(NC(=O)Cc2ccc3oc(CC(C)(C)C)nc3c2)c1Cl |  |  |  |  |  | 144 to 145 |  |  | 
Cc1nsc(NC(=O)C(=CO)c2ccc3oc(CC(C)(C)C)nc3c2)c1Cl [Table 12 Compound 7] | 97 | 9 (9 indicates 80-100% mortality) | 0 (represents less than 40% mortality) | 100 | 78 |  | 9 (9 indicates 80-100% mortality) | 0 (represents less than 40% mortality) | 9 (9 indicates 80-100% mortality)
